Data from the supplement of paper PMC11208160.

experiment: recombinant UMI read abundance after kanamycin selection (control-corrected) (log10(CPM+1)); higher = more efficient recombination; extreme values may be limits of the assay; sequences stand for … in AGTGCAGAGAAAATCGGCCAGTTTTCTCTGCCTGCAGTCCGCATGCCGTGGGACCCCTTGGGTTCTAACCTGTTGCCTAGATTTATGCAGCGGACTGCCTTTCTCCCAAAGTGATAAACCGG…AGGTTGGTTTCACT; site = the 11-nt donor
Method: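 Pooled E. coli donor-specificity screen for the IS621 bridge recombinase. Each library member carries a reprogrammed 11-nt donor and a full-length LE bridge RNA expressed in cis from the natural promoter, with a paired donor-binding loop (8-nt LDG + 4-nt RDG) and a target-binding loop fixed to T5. It is co-electroporated with a T5 target plasmid; recombinase is induced with 0.07 mM IPTG and recombinants are selected on kanamycin. UMIs are counted as CPM, averaged over two biological replicates and corrected by the unselected control. Molecule = full bridge RNA written as DNA, built from the T5 scaffold: LDG = donor specificity nt 1-8, RDG = reverse complement of nt 8-11.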
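Also: IS621 bridge recombinase in Escherichia coli cells against a fixed T5 target plasmid.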

Row | Sequence | recombinant UMI read abundance (log10)
1 | ACATCTACATGGACCGGTTTTCCCGGTAATCCGTATTTGTG (site ACATTTACTCA) | 0.319
2 | ACATCTACATGGACCGGTTTTCCCGGTAATCCGTATTTGTG (site ACCTCTACTCA) | 0.0111
3 | ACATCTACATGGACCGGTTTTCCCGGTAATCCGTATTTGTG (site ACGTCTACTCA) | 0.0191
4 | ACATCTACATGGACCGGTTTTCCCGGTAATCCGTATTTGTG (site ACTTCTACTCA) | 0.371
5 | ACATCTACATGGACCGGTTTTCCCGGTAATCCGTATTTGTG (site AGATCTACTCA) | 0.00667
6 | ACATCTACATGGACCGGTTTTCCCGGTAATCCGTATTTGTG (site ATATCTACTCA) | 0.245
7 | ACATCTACATGGACCGGTTTTCCCGGTAATCCGTATTTGTG (site CCATCTACTCA) | 0.465
8 | ACATCTACATGGACCGGTTTTCCCGGTAATCCGTATTTGTG (site GCATCTACTCA) | 0.305
9 | ACATCTACATGGACCGGTTTTCCCGGTAATCCGTATTTGTG (site TCATCTACTCA) | 0.0183
10 | ACATGGTCATGGACCGGTTTTCCCGGTAATCCGTATTTGTC (site ACATGGTCTGA) | 1.81
11 | ACATTACCATGGACCGGTTTTCCCGGTAATCCGTATTTGCA (site ACAGTATCTTG) | 1.21
12 | ACATTACCATGGACCGGTTTTCCCGGTAATCCGTATTTGCA (site ACATTACCTTG) | 0
13 | ACATTATCATGGACCGGTTTTCCCGGTAATCCGTATTTGCC (site ACAGTATCTTG) | 0
14 | ACATTATCATGGACCGGTTTTCCCGGTAATCCGTATTTGCC (site ACATTATCTGG) | 2.56
15 | ACATTGACATGGACCGGTTTTCCCGGTAATCCGTATTTGCC (site ACATTGACTGG) | 2
16 | ACCACCGCATGGACCGGTTTTCCCGGTAATCCGTATTTGCG (site ACCACCGCTCG) | 0.455
17 | ACCACCGCATGGACCGGTTTTCCCGGTAATCCGTATTTGCG (site CCCACCGCTCG) | 0.221
18 | ACCACCGCATGGACCGGTTTTCCCGGTAATCCGTATTTGCG (site GCCACCGCTCG) | 0
19 | ACCACCGCATGGACCGGTTTTCCCGGTAATCCGTATTTGCG (site TCCACCGCTCG) | 0.0102
20 | ACCACTCCATGGACCGGTTTTCCCGGTAATCCGTATTTGTA (site ACCACTCCTTA) | 0.852
21 | ACCAGCCCATGGACCGGTTTTCCCGGTAATCCGTATTTGAT (site ACCAGCCCTAT) | 0.0092
22 | ACCCAGACATGGACCGGTTTTCCCGGTAATCCGTATTTGGG (site ACCAAGACTCC) | 0.0107
23 | ACCCAGACATGGACCGGTTTTCCCGGTAATCCGTATTTGGG (site ACCCAGACTCC) | 0.036
24 | ACCCAGACATGGACCGGTTTTCCCGGTAATCCGTATTTGGG (site ACCGAGACTCC) | 0.00445

Row | Sequence | recombinant UMI read abundance (log10)
25 | ACCCAGACATGGACCGGTTTTCCCGGTAATCCGTATTTGGG (site ACCTAGACTCC) | 0.00599
26 | ACCCATACATGGACCGGTTTTCCCGGTAATCCGTATTTGAA (site ACCCATACTTT) | 1.34
27 | ACCCGAACATGGACCGGTTTTCCCGGTAATCCGTATTTGTC (site ACACGAACTGA) | 0
28 | ACCCGAACATGGACCGGTTTTCCCGGTAATCCGTATTTGTC (site ACCCGAACTGA) | 1.95
29 | ACCCGAACATGGACCGGTTTTCCCGGTAATCCGTATTTGTC (site ACGCGAACTGA) | 0
30 | ACCCGAACATGGACCGGTTTTCCCGGTAATCCGTATTTGTC (site ACTCGAACTGA) | 0
31 | ACCCTAGCATGGACCGGTTTTCCCGGTAATCCGTATTTGTT (site AACCTAGCTAA) | 0.0322
32 | ACCCTAGCATGGACCGGTTTTCCCGGTAATCCGTATTTGTT (site ACCCTAGCTAA) | 0
33 | ACCCTAGCATGGACCGGTTTTCCCGGTAATCCGTATTTGTT (site AGCCTAGCTAA) | 0.00512
34 | ACCCTAGCATGGACCGGTTTTCCCGGTAATCCGTATTTGTT (site ATCCTAGCTAA) | 0.016
35 | ACCCTGTCATGGACCGGTTTTCCCGGTAATCCGTATTTGGG (site ACCCTGTCTCC) | 0
36 | ACCGAGCCATGGACCGGTTTTCCCGGTAATCCGTATTTGCG (site ACCGAGCCTCG) | 0.0257
37 | ACCGTAGCATGGACCGGTTTTCCCGGTAATCCGTATTTGTG (site ACCGTAGCTCA) | 0.533
38 | ACCGTATCATGGACCGGTTTTCCCGGTAATCCGTATTTGCA (site ACAGTATCTTG) | 2.58
39 | ACCGTATCATGGACCGGTTTTCCCGGTAATCCGTATTTGCA (site ACCGTATCTTG) | 2.45
40 | ACCGTATCATGGACCGGTTTTCCCGGTAATCCGTATTTGCA (site ACGGTATCTTG) | 0.962
41 | ACCGTATCATGGACCGGTTTTCCCGGTAATCCGTATTTGCA (site ACTGTATCTTG) | 0.874
42 | ACCGTGGCATGGACCGGTTTTCCCGGTAATCCGTATTTGGA (site ACCGTGGCTTC) | 0.325
43 | ACCGTTACATGGACCGGTTTTCCCGGTAATCCGTATTTGTC (site ACCGTTACTGA) | 1.49
44 | ACCTAAACATGGACCGGTTTTCCCGGTAATCCGTATTTGGG (site ACCTAAACTCC) | 0.256
45 | ACCTAAACATGGACCGGTTTTCCCGGTAATCCGTATTTGGG (site ACCTACACTCC) | 0.0196
46 | ACCTAAACATGGACCGGTTTTCCCGGTAATCCGTATTTGGG (site ACCTAGACTCC) | 0.0149
47 | ACCTAAACATGGACCGGTTTTCCCGGTAATCCGTATTTGGG (site ACCTATACTCC) | 0.0143
48 | ACCTACACATGGACCGGTTTTCCCGGTAATCCGTATTTGGG (site ACCTAAACTCC) | 0.00329

Row | Sequence | recombinant UMI read abundance (log10)
49 | ACCTACACATGGACCGGTTTTCCCGGTAATCCGTATTTGGG (site ACCTACACTCC) | 0.0331
50 | ACCTACACATGGACCGGTTTTCCCGGTAATCCGTATTTGGG (site ACCTAGACTCC) | 0.00747
51 | ACCTACACATGGACCGGTTTTCCCGGTAATCCGTATTTGGG (site ACCTATACTCC) | 0.0213
52 | ACCTAGACATGGACCGGTTTTCCCGGTAATCCGTATTTGCG (site ACCTAGACTCA) | 0.0199
53 | ACCTAGACATGGACCGGTTTTCCCGGTAATCCGTATTTGCG (site ACCTAGACTCC) | 0.0218
54 | ACCTAGACATGGACCGGTTTTCCCGGTAATCCGTATTTGCG (site ACCTAGACTCG) | 1.58
55 | ACCTAGACATGGACCGGTTTTCCCGGTAATCCGTATTTGCG (site ACCTAGACTCT) | 0.262
56 | ACCTAGACATGGACCGGTTTTCCCGGTAATCCGTATTTGGC (site ACCTAGACTAC) | 0.532
57 | ACCTAGACATGGACCGGTTTTCCCGGTAATCCGTATTTGGC (site ACCTAGACTCC) | 0.0128
58 | ACCTAGACATGGACCGGTTTTCCCGGTAATCCGTATTTGGC (site ACCTAGACTGC) | 1.82
59 | ACCTAGACATGGACCGGTTTTCCCGGTAATCCGTATTTGGC (site ACCTAGACTTC) | 0.00402
60 | ACCTAGACATGGACCGGTTTTCCCGGTAATCCGTATTTGTG (site ACCTAGACTCA) | 0.799
61 | ACCTAGACATGGACCGGTTTTCCCGGTAATCCGTATTTGTG (site ACCTAGACTCC) | 0.114
62 | ACCTAGACATGGACCGGTTTTCCCGGTAATCCGTATTTGTG (site ACCTAGACTCG) | 0.469
63 | ACCTAGACATGGACCGGTTTTCCCGGTAATCCGTATTTGTG (site ACCTAGACTCT) | 0.22
64 | ACCTAGCCATGGACCGGTTTTCCCGGTAATCCGTATTTGGG (site ACCTAGACTCC) | 0.00935
65 | ACCTAGCCATGGACCGGTTTTCCCGGTAATCCGTATTTGGG (site ACCTAGCCTCC) | 0.00989
66 | ACCTAGCCATGGACCGGTTTTCCCGGTAATCCGTATTTGGG (site ACCTAGGCTCC) | 0.0311
67 | ACCTAGCCATGGACCGGTTTTCCCGGTAATCCGTATTTGGG (site ACCTAGTCTCC) | 0.0502
68 | ACCTATACATGGACCGGTTTTCCCGGTAATCCGTATTTGGG (site ACCTAAACTCC) | 0.00642
69 | ACCTATACATGGACCGGTTTTCCCGGTAATCCGTATTTGGG (site ACCTACACTCC) | 0.0606
70 | ACCTATACATGGACCGGTTTTCCCGGTAATCCGTATTTGGG (site ACCTAGACTCC) | 0.0071
71 | ACCTATACATGGACCGGTTTTCCCGGTAATCCGTATTTGGG (site ACCTATACTCC) | 0.0144
72 | ACCTCATCATGGACCGGTTTTCCCGGTAATCCGTATTTGGT (site ACCTCATCTAC) | 0.128
